By IC50 is commonly meant the concentration needed to halve the response being measured.

Where no end group is shown, it is not given here.

The values that follow come from PMC5566978, “Human Leukocyte Antigen (HLA)-DRB1*15:01 and HLA-DRB5*01:01 Present Complementary Peptide Repertoires” (Frontiers in Immunology, 2017).

The first assay addresses recombinant DR2a (DRA1*01:01/DRB5*01:01) (Homo sapiens, UniProt P01903+Q30154). The assay is described as follows: Competition peptide-binding assay to recombinant DR2a. Conditions: competition with 1 µM biotinylated modified GAD555-567 peptide, wells coated with HLA-DR2a, europium-streptavidin time resolved fluorescence. The protocol:
(§1) The experimental affinity of different peptides to HLA-DR molecules was determined as previously described ([31]). Briefly, recombinant DR2b (DRA1*01:01/DRB1*15:01) and DR2a (DRA1*01:01/DRB5*01:01) proteins were used for peptide-binding assays. Increasing concentrations of each non-biotinylated test peptide were incubated in competition with 1 µM of the biotinylated GAD555-567 peptide ([…], modified from […] to bind to DRB1*15:01 and DRB5*01:01 in a single unambiguous register) in wells coated with HLA-DR2a or HLA-DR2b. After washing, residual biotinylated reference peptide was labeled using europium conjugated streptavidin (Perkin Elmer) and quantified using a Victor3 D time resolved fluorometer (Perkin Elmer). Peptide-binding curves were simulated by non-linear regression with Prism Software (version 4.03, GraphPad Software Inc.) using a sigmoidal dose–response curve. IC50 binding values were calculated from the resulting curves as the peptide concentration needed for 50% inhibition of reference peptide binding. Equivalent amounts of purified HLA-DR protein were plated on each plate, but similar amounts of total protein can have different levels of activity. Thus, different preparations of protein frequently give different levels of maximum counts (presumably based on differences in purity and the proportion of the protein that is functional). Indeed differences between different preparations of the same HLA-DR protein can be observed.
(§2) Figure 4 Experimental binding affinity of peptides sequenced from MGAR and (A) Binding to DR2a or (B) Binding to DR2b. Increased concentration of the peptides were incubated in wells coated with recombinant human leukocyte antigen (HLA)-DR2a or HLA-DR2b in competition with 1 µM biotinylated modified GAD555-567 peptide ([…], modified from […] to bind to DRB1*15:01 and DRB5*01:01 in a single unambiguous register) to generate binding curves. After washing, residual biotinylated reference peptide was labeled using europium-conjugated streptavidin and quantified. The Y-axis depicts raw europium counts, which is proportional to the amount of residual biotinylated peptide that remains bound to HLA class II. White-filled symbols represent peptides eluted from DR2a. Black-filled symbols represent peptides eluted from DR2b.
On to LEEFGRFASFEAQG, for which the half-maximal inhibitory concentration (IC50) is over 50 µM.

Take LEEFGRFASFEAQGA: the IC50 was over 50 µM.

With LPSEKAIFLFVDKTVPQS, the “BINDING IC50 DR2a” value is “non-detectable affinity” and the IC50 was over 50 µM.

Turning to QKKEIHLYQTFVVQ, the IC50 was over 50 µM.

As for QKKEIHLYQTFVVQL, the IC50 was over 50 µM.

QKKEIHLYQTFVVQLQDPR: the IC50 was over 50 µM.

With QKKEIHLYQTFVVQLQDPREP, the IC50 is over 50 µM.

On to SQAEFEKAAEEVRHL, for which the IC50 came to 5.8 µM.

The next assay addresses recombinant DR2b (DRA1*01:01/DRB1*15:01) (Homo sapiens, UniProt P01903+P01911). Briefly: Competition peptide-binding assay to recombinant DR2b. The following applies: competition with 1 µM biotinylated modified GAD555-567 peptide, wells coated with HLA-DR2b, europium-streptavidin time resolved fluorescence. The protocol: as §1, §2
As for ELEELRAEQQRLKSQDL, the IC50 is over 50 µM.

Take LEEFGRFASFEAQG: the IC50 was over 50 µM.

On to LEEFGRFASFEAQGA, for which the IC50 is over 50 µM.

Turning to QKKEIHLYQTFVVQ, the IC50 is over 50 µM.

As for QKKEIHLYQTFVVQL, the IC50 is over 50 µM.

In the case of QKKEIHLYQTFVVQLQDPR, the IC50 was over 50 µM.

On to QKKEIHLYQTFVVQLQDPREP, for which the IC50 is over 50 µM.

In the case of QTKEFQVLKSLGKLAMG, the concentration for half-maximal inhibition (IC50) is over 50 µM.

For the sequence SQAEFEKAAEEVRHL, the IC50 was over 50 µM.
